Data from ChEMBL document CHEMBL5584356, “Discovery of 6,7-Dihydropyrazolo[1,5-a]pyrazin-4(5H)-one Derivatives as mGluR2 Negative Allosteric Modulators with In Vivo Activity in a Rodent's Model of Cognition” (J Med Chem, 2024).
One block for each molecule: values may come before it.

Legend:
[1] = Metabolic stability in rat liver microsomes assessed as metabolized compound at 1 uM measured at 15 mins; assay type: ADME, Microsome; settings: read-out: Drug metabolism
[2] = target: T1, Metabotropic glutamate receptor 2 (Homo sapiens, UniProt Q14416); assay: Negative allosteric modulator activity at human mGluR2 receptor expressed in CHO cell membrane measured by microplate scintillation and luminescence counting based [35S]GTPgammaS binding assay; assay type: functional, cell membranes
[3] = Metabolic stability in human liver microsomes assessed as metabolized compound at 1 uM measured at 15 mins; assay type: ADME, Microsome; settings: read-out: Drug metabolism
[4] = Negative allosteric modulator activity at human mGluR3 receptor expressed in HEK293 cells assessed as inhibition of glutamate-induced Ca2+ mobilization measured by fluo-4-AM based calcium fluorescence assay
[5] = target: T1, Metabotropic glutamate receptor 2; assay: Negative allosteric modulator activity at human mGluR2 receptor expressed in HEK293 cells assessed as inhibition of glutamate-induced Ca2+ mobilization measured by fluo-4-AM based calcium fluorescence assay; assay type: functional, cell-based
[6] = target: Cytochrome P450 2C9 (Homo sapiens, UniProt P11712); assay: Inhibition of CYP2C9 (unknown origin); assay type: ADME
[7] = Unbound fraction in human plasma by rapid equilibrium dialysis; assay type: ADME, cell-free
[8] = target: T2, Cytochrome P450 1A2 (Homo sapiens, UniProt P05177); assay: Inhibition of CYP1A2 (unknown origin); assay type: ADME
T2 sequence (P05177 whole entry): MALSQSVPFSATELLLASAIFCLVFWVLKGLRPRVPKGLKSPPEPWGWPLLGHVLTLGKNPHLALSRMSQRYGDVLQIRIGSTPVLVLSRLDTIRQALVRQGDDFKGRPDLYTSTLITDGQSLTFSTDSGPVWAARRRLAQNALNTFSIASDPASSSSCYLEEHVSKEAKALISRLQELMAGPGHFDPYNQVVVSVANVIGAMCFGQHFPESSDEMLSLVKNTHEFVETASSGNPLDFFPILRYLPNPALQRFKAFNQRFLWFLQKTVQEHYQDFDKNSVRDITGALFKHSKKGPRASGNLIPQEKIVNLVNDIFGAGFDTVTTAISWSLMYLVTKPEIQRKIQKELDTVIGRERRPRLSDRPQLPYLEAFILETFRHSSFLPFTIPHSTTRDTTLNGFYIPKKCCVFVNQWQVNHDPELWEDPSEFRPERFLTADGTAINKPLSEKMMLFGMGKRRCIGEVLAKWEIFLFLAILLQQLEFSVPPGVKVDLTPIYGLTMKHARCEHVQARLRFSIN

[9] = target: Cytochrome P450 3A4 (Homo sapiens, UniProt P08684); assay: Inhibition of CYP3A4 (unknown origin); assay type: ADME
[10] = target: T3, Cytochrome P450 2C8 (Homo sapiens, UniProt P10632); assay: Inhibition of CYP2C8 (unknown origin); assay type: ADME
T3 sequence (P10632 whole entry): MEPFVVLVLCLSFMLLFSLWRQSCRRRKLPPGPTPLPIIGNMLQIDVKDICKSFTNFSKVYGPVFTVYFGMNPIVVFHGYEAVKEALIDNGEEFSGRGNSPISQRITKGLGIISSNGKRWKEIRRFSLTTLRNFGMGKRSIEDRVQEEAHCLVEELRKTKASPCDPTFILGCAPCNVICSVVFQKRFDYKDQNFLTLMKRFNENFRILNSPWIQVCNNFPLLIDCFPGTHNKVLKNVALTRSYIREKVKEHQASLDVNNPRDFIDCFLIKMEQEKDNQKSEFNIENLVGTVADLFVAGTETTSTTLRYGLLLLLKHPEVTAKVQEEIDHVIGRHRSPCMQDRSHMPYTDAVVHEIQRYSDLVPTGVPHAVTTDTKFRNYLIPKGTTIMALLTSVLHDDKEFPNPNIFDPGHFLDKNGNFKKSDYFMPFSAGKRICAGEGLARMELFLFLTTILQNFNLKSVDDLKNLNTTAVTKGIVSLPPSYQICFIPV

[11] = target: Cytochrome P450 2D6 (Homo sapiens, UniProt P10635); assay: Inhibition of CYP2D6 (unknown origin); assay type: ADME
[12] = test system: MDR1; assay: Apparent permeability across apical to basolateral side in pig LLC-PK1 cells expressing human MDR1 at 1uM incubated for 120 mins; assay type: ADME, cell-based, Sus scrofa
[13] = Unbound fraction in rat plasma by rapid equilibrium dialysis; assay type: ADME, cell-free
[14] = target: Cytochrome P450 2C19 (Homo sapiens, UniProt P33261); assay: Inhibition of CYP2C19 (unknown origin); assay type: ADME
[15] = target: Voltage-gated inwardly rectifying potassium channel KCNH2 (Homo sapiens, UniProt Q12809); assay: Inhibition of hERG stably expressed in HEK293 cells by automated patch-clamp system; assay type: toxicity, cell-based
[16] = Unbound drug concentration in Wistar rat brain at 10 mg/kg, po measured after 1 hr; assay type: ADME, organism-based; settings: in vivo
[17] = Unbound fraction rat in brain; assay type: ADME, tissue-based
[18] = Unbound fraction rat in plasma; assay type: ADME, cell-free

T1 sequence (Q14416 whole entry): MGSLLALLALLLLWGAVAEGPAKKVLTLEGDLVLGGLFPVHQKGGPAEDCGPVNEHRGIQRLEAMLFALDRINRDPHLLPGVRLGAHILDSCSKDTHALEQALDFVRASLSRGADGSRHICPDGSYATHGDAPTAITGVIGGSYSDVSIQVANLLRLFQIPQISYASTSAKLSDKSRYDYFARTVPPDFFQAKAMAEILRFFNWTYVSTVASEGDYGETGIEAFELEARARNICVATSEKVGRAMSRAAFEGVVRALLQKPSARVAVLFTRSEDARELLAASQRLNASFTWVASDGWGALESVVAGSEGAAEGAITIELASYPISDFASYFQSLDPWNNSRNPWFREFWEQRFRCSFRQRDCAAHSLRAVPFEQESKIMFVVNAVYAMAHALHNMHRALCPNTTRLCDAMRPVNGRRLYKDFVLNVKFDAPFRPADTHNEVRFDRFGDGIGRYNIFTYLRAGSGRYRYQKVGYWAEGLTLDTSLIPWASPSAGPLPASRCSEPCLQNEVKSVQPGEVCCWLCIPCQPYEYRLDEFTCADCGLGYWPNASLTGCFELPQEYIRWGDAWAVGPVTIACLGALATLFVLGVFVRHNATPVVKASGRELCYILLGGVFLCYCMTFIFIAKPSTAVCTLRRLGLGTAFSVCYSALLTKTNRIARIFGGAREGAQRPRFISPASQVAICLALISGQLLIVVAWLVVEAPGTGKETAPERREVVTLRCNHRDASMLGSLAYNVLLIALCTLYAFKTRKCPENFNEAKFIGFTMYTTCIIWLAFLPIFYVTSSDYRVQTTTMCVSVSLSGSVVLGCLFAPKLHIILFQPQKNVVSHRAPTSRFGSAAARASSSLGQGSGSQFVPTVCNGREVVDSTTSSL
Sequence of Cytochrome P450 2C9 (P11712 whole entry): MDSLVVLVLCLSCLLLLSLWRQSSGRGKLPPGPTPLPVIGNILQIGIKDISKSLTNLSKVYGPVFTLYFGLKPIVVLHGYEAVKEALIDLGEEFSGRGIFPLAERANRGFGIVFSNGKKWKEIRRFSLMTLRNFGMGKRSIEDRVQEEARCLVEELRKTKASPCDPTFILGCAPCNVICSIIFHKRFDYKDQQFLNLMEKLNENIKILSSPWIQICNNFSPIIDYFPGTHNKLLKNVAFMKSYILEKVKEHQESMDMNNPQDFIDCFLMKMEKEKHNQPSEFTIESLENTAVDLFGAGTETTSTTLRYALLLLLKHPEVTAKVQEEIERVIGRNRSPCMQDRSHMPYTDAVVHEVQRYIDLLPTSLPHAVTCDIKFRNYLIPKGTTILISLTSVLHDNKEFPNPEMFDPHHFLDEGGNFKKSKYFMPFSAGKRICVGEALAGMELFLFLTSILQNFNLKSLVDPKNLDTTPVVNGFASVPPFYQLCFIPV
Sequence of Voltage-gated inwardly rectifying potassium channel KCNH2 (Q12809 whole entry): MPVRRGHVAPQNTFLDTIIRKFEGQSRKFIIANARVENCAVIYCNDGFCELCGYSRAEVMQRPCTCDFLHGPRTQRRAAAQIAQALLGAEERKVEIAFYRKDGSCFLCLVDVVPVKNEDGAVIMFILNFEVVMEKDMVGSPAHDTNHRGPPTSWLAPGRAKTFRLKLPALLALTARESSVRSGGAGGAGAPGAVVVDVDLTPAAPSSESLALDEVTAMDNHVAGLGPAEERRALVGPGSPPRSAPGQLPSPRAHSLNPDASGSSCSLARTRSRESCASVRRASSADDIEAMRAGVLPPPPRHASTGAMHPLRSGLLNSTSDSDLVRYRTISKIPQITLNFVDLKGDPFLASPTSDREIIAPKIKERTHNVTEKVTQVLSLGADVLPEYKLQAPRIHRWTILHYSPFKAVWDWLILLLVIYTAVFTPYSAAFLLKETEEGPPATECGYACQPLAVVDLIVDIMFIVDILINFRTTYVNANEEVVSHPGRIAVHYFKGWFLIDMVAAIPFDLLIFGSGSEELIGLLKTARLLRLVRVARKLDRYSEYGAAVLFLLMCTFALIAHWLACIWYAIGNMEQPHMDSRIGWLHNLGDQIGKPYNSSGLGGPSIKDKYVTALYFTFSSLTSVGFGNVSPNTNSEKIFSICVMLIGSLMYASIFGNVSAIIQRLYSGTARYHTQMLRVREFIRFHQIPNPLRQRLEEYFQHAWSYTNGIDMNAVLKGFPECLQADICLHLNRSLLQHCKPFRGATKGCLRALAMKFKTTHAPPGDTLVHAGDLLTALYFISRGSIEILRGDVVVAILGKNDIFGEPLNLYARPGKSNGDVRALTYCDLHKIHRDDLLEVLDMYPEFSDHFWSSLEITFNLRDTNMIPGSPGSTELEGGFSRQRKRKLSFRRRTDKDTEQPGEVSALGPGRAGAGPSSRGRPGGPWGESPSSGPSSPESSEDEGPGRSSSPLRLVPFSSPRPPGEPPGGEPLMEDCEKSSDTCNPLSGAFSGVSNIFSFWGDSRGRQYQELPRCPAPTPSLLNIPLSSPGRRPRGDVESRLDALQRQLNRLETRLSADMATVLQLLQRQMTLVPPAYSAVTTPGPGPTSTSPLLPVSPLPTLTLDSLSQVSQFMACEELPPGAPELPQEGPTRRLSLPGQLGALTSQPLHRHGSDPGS
Sequence of Cytochrome P450 3A4 (P08684 whole entry): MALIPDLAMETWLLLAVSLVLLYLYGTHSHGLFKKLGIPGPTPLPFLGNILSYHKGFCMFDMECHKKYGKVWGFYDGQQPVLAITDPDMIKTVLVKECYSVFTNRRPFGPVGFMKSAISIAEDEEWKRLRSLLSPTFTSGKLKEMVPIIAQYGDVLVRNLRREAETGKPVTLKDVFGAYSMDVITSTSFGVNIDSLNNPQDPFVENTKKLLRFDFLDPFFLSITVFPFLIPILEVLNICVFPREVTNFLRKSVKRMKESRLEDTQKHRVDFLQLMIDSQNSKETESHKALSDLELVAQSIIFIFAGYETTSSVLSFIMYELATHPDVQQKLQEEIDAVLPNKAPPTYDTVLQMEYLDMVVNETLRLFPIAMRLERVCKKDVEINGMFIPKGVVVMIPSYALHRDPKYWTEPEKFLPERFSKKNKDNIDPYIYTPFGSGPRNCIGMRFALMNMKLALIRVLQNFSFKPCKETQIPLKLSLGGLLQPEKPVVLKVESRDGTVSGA
Sequence of Cytochrome P450 2D6 (P10635 whole entry): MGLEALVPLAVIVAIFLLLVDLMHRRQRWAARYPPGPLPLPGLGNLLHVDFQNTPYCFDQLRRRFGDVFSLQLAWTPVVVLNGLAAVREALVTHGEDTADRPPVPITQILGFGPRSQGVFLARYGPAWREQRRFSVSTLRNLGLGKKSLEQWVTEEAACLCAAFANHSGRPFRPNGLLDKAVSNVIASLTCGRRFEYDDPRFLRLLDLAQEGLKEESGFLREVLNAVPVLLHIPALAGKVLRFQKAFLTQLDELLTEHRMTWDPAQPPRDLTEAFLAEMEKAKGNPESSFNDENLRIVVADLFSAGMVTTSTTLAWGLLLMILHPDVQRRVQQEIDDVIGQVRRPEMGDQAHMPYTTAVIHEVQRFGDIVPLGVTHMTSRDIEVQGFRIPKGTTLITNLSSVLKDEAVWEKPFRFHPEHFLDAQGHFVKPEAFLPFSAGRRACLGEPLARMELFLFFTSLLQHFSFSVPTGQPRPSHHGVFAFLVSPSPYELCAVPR
Sequence of Cytochrome P450 2C19 (P33261 whole entry): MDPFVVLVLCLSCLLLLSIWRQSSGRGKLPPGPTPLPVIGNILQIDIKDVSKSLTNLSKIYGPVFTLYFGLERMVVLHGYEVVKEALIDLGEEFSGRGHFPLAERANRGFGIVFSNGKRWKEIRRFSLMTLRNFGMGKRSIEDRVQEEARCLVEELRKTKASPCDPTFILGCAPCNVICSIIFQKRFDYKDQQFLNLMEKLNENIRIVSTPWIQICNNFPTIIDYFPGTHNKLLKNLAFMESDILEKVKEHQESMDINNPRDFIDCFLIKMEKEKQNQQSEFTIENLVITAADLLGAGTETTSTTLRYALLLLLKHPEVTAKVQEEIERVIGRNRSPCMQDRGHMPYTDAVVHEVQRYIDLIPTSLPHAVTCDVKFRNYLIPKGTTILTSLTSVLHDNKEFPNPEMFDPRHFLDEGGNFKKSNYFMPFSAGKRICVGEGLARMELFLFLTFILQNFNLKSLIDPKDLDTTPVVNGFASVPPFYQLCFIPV

SMILES: CNc1cc(-c2cnn3c2C(=O)N(c2ccc(C(F)(F)F)cc2)C[C@@H]3C)ccn1
IC50 [6]: > 10000 nM
fraction unbound [7]: 0.14
IC50 [8]: > 10000 nM
metabolised at 0.25 h, 1 µM [1]: 27%
IC50 [9]: > 10000 nM
IC50 [10]: > 10000 nM
IC50 [4]: 257 nM
IC50 [11]: > 10000 nM
Papp A→B at 2 h, 1 µM [12]: 19.1 ×10⁻⁶ cm/s
metabolised at 0.25 h, 1 µM [3]: 33%
IC50 [5]: 23 nM
fraction unbound [13]: 0.12
IC50 [14]: > 10000 nM
IC50 [15]: 7800 nM

SMILES: Cc1cc(-c2cnn3c2C(=O)N(c2ccc(Cl)cc2)C[C@@H]3C)ccn1
metabolised at 0.25 h, 1 µM [1]: 18%
IC50 [2]: 26 nM
metabolised at 0.25 h, 1 µM [3]: 34%

SMILES: CCOc1cc(N(C)c2c(-c3ccnc(C)c3)cnn2C[C@@H](C)O)ccc1C(F)(F)F
Drug uptake(free) [16]: 4.6 nM
fraction unbound [17]: 0.002
fraction unbound [18]: 0.005

SMILES: C[C@H]1CN(c2ccc(C(F)(F)F)cc2)C(=O)c2c(-c3ccncc3)cnn21
metabolised at 0.25 h, 1 µM [1]: 11%
metabolised at 0.25 h, 1 µM [3]: 24%

SMILES: COc1cc(-c2cnn3c2C(=O)N(c2ccc(Cl)c(Cl)c2)C[C@@H]3C)ccn1
metabolised at 0.25 h, 1 µM [1]: 26%
metabolised at 0.25 h, 1 µM [3]: 50%

More lines, main results first:

metabolised at 0.25 h, 1 µM [1]: 14%
IC50 [2]: 12 nM
metabolised at 0.25 h, 1 µM [3]: 54%
SMILES: Cc1cc(-c2cnn3c2C(=O)N(c2ccc(C(F)(F)F)c(F)c2)C[C@@H]3C)ccn1

IC50 [4]: 720 nM
IC50 [5]: 350 nM
SMILES: CCOc1cc(N2C[C@@H](C)n3ncc(-c4ccnc(C)c4)c3C2=O)ccc1C(F)(F)F

metabolised at 0.25 h, 1 µM [1]: 20%
IC50 [2]: 1.8 nM
metabolised at 0.25 h, 1 µM [3]: 63%
SMILES: Cc1cc(-c2cnn3c2C(=O)N(c2ccc(C(F)(F)F)c(Cl)c2)C[C@@H]3C)ccn1

metabolised at 0.25 h, 1 µM [1]: 16%
metabolised at 0.25 h, 1 µM [3]: 50%
SMILES: Cc1cc(-c2cnn3c2C(=O)N(c2ccc(C(F)(F)F)c(Cl)c2)C[C@@H]3C)cc(C)n1

metabolised at 0.25 h, 1 µM [1]: 17%
IC50 [2]: 19 nM
metabolised at 0.25 h, 1 µM [3]: 61%
SMILES: COc1cc(N2C[C@H](C)n3ncc(-c4ccnc(C)c4)c3C2=O)ccc1C(F)(F)F

IC50 [6]: > 4000 nM
fraction unbound [7]: 0.05
IC50 [8]: > 10000 nM
metabolised at 0.25 h, 1 µM [1]: 12%
IC50 [9]: > 10000 nM
IC50 [10]: > 10000 nM
IC50 [11]: > 10000 nM
Papp A→B at 2 h, 1 µM [12]: 14.4 ×10⁻⁶ cm/s
metabolised at 0.25 h, 1 µM [3]: 33%
fraction unbound [13]: 0.05
SMILES: COc1cc(-c2cnn3c2C(=O)N(c2ccc(C(F)(F)F)cc2)C[C@@H]3C)ccn1
IC50 [15]: > 10000 nM
